“Also recorded” adds a separate entry of the source.

Experiment [1] relates to Staphylococcus aureus. The experiment in a line: Static biofilm assay (CLSM). As to conditions: 50 μM. In kind it is cell-based. As for the experimental part:
For static biofilm assay, overnight cultures of P. aeruginosa (PA01), Salmonella and Staphylococcus aureus strains were diluted 1:10 in fresh LB medium containing a final concentration of synthesized molecule (203) of 20 or 50 μM, or DMSO (up to 1%) as control. Biofilms were grown under non-shaking conditions at 37° C. in 96-well plate (Thermo Scientific, Rochester, N.Y., USA). […] The stained cells were washed twice with PBS. Biofilm images were taken by CLSM (Plan-Apochromat 20×/0.8 M27, Zeiss LSM880, Germany).
P. aeruginosa PA01, Salmonella and Staphylococcus aureus strains were incubated for 24 hr at 37° C. The bacterial suspension was diluted 1:10 with fresh LB and incubated for 3 h with the kefir biomass crude extract molecules or with DMSO as a control (refreshment sample). In all cultures, DMSO concentration was up to 1% (v/v). 200 μl of the broth medium mix with yogurt extract or with DMSO as control were placed in each well of a 96-well plate (Thermo Scientific, Rochester, N.Y., USA). 2 μl refreshment samples were added to each suitable well. The plate incubated for 24 hr at 37° C. After the incubation the samples washed three times with PBS. For visualizing of viable cells, the bacteria were stained green and dead cells stained red using the BacLight® Dead/Live Kit (Invitrogen, Eugene, Oreg., USA). The stained cells were washed twice with PBS. […]

Experiment [2] addresses T1, amyloid beta (αβ1-42) (Homo sapiens, UniProt P05067).
T1 construct: samples containing 30 μM amyloid beta [4(1-42)] in the absence or presence of tryptophol acetate
The experiment in a line: Transmission electron microscopy of fibrillation. In kind it is biochemical. To be noted: 24 hr, 37° C. As to the method:
TEM grids were prepared after 24 hr incubation at 37° C. of samples containing 30 μM 4(1-42) in the absence or presence of tryptophol acetate in different concentrations.

For experiment [3], the system named is V. cholerae toxin. The experiment in a line: GM1-ELISA cholerae toxin detection assay. In kind it is cell-based, Vibrio cholerae. As for the experimental part: GM1 (monosialotetrahexosylganglioside) was seeded and immobilized on a 96-well white/clear bottom microtiter plate (Greiner) microtiter plates with the following procedure: GM1 stock solution (2 mg/mL in PBS) was diluted with PBS (final conc. 10 μg/mL). 200 μL of the GM1 solution was added to each well and incubated at 37° C. without shaking for 4-16 hours. The plates were washed with PBS (×3). Bovine serum albumin (BSA) was dissolved in PBS (final conc. 4 mg/mL) and 200 μL of the BSA-PBS were added to each well and incubated at 37° C. without shaking for at least 4 hours. The plates were washed with PBS (×3) and were stored in fridge until use. VC1 wild-type strain with of the tested compounds (Tryptophol acetate and Tyrosol acetate both in concentration of 100 μM) and a control with bacteria only, were grown and incubated with aeration and shaking overnight in LB medium at 30° C. The cultures were spinned-down for 5 min at 5,000 rcf and the supernatant was taken and diluted 1:2 with a BSA-PBS 4 mg/mL solution. […] 100 μL of the luminol working solution were added to each well, the plate was shaken for 1.5-2 minutes and the luminescence was measured using a Microtiter Plate Reader (Varioskan Flash, Thermo). Luminescence values were normalized to the control.
A general note: ELISA stands for enzyme-linked immunosorbent assay.

The nature of experiment [4]: DPPH radical absorbance assay. In kind it is biochemical. As to conditions: 517 nm. An excerpt:
FIGS. 34A-34B are graphs showing the anti-oxidation effect of tryptophol acetate and tyrosol acetate. Anti-oxidative capacity of the molecules as measured by DPPH (34A) and ORAC (34B) assays. 34A. The results are presented as a percentage of absorbance inhibition (517 nm, the absorbance maximum of DPPH) in the presence of tryptophol acetate (1) alone, tyrosol acetate alone (2) alone, and 1+2 together. 34B. Fluorescence decay of fluorescein induced by AAPH in the absence or presence of 1 and 2. Reaction mixtures containing fluorescein (60 nM) and AAPH (18.75 mM) in 200 μl of phosphate buffer (75 mM, pH 7.4) were incubated at 37° C. for 800 min. Changes in fluorescence intensity emitted by fluorescein were monitored. Results are presented as the net area under the curve (AUC). Each value is the mean±SD of triplicate experiments. ***p<0.0001
The inventors analyzed the anti-oxidation properties of the molecules (FIG. 34) as oxidation processes and generation of reactive oxidative species (ROS) are recognized as contributing to toxic effects in diverse diseases and pathological conditions. FIG. 34 depicts application of a spectrophotometric assay monitoring the visible absorbance of the 2,2-diphenyl-1-picrylhydrazyl (DPPH) radical, which is widely employed for evaluating the anti-oxidation activity of biomolecules. […]

Experiment [5] deals with V. cholerae VC1 (WT) and MM920. The experiment in a line: V. cholerae biofilm modulation (CLSM, crystal violet). It counts as cell-based, Vibrio cholerae.
Method: The various pathogenic indicator strains used in this study were V. cholerae strain MM920 (ACqsA AluxQ), Vibrio harveyi strain MM30 (LuxS, Tn5). To initiate biofilm formation, bacteria was grown in the absence of the V. cholerae autoinducer 1 (CAI1). In addition, the bacteria were grown in presence of: 900 nM CAI1 (Vibrio Cholerae MM920), 900 nM CAI1, 200 μM Tryptophol acetate and 200 μM Tyrosol acetate, and 200 μM Tryptophol acetate and 200 μM Tyrosol acetate.
Biofilms were grown under shaking conditions at 30° C. in 96-well plate (Thermo Scientific, Rochester, N.Y., USA). […] The stained cells were washed twice with PBS. Biofilm images were taken by CLSM (Plan-Apochromat 20×/0.8 M27, Zeiss LSM880, Germany).
For static biofilm assay, overnight cultures of V. cholerae strain MM920 was diluted 1:10 in fresh LB medium containing a final concentration of 100 μM from each Tryptophol acetate and Tyrosol acetate or DMSO (up to 1%) as control. […] One in absence of the V. cholerae autoinducer (CAI-1) and the other one in presence of 900 nM CAI-1. Biofilms were grown under non-shaking conditions at 37° C. in 96-well plate (Thermo Scientific, Rochester, N.Y., USA). […] The stained cells were washed twice with PBS. Biofilm images were taken by CLSM (Plan-Apochromat 20×/0.8 M27, Zeiss LSM880, Germany).
Biofilm matrixes of V. cholerae VC1 WT (FIGS. 23Ai and 23Aii), and the V. cholerae MM920 mutant (FIGS. 23Aiii and 23Aiv) were grown for 24 hours with or without tryptophol acetate in the growth medium, and stained using the BacLight® Dead/Live Kit to distinguish viable cells.
Experiment [6] relates to Agrobacterium tumefaciens A136. The experiment in a line: Quorum sensing bioluminescence reporter assay. To be noted: C8 (3-oxo-C8-HSL) autoinducer. In kind it is cell-based. On the technique in general: In a reporter assay the amount or activity of a reporter protein is the signal.
Method: Bioluminescence assay was performed with mutant bacteria lacking the nucleotide sequences encoding the relevant autoinducers (AI). Additionally, the bacteria were cloned with bioluminescence reporter plasmids in order to measure their luminescence intensity when quorum sensing gene expression occurs. Ninety-six (96) well microtiter plate assays were used to assess AI activation (agonist) or inhibition (antagonist) of the following bacteria: Agrobacterium tumefaciens, which responds to the C8 autoinducer, and both Vibrio cholerae and Vibrio harveyi, which respond to the (S)-4,5-dihydroxy-2,3-pentanedione (DPD) autoinducer to communicate.
Agrobacterium tumefaciens A136 pCF218 pMV26 culture was grown in Luria-Bertani broth (LB; Miller's broth) supplemented with 25 μg/ml of kanamycin and 4.5 μg/ml of tetracycline at 28-30° C. for 24 h. […] The overnight cultures were diluted to an absorbance density (OD600) of 0.05 by fresh LB medium. […] Luminescence was measured every 20 min for 19 h with continuous shaking at 30° C., using a Microtiter Plate Reader (Varioskan Flash, Thermo). Average luminescence values divided by OD600 values were plotted against the added compound concentration.
The effect of the Kefir biomass crude extract molecules on the following bacteria, A. tumefaciens A136, V. cholerae MM920 and V. harveyi MM30 were measured as described by Brenier et al. (2008). […]

T1 sequence (P05067 672-713 limits assumed): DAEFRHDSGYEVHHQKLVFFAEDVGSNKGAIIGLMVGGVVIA

Turning to `CC(=O)OCCc1c[nH]c2ccccc12` [Tryptophol acetate], the “Biofilm formation, Staphylococcus aureus” value in experiment [1] is “significant influence on biofilm formation”. For the same molecule, the “Fibrillation formation (TEM)” value in experiment [2] is “significantly inhibited”. Moreover, in experiment [3], the “V. cholerae toxin levels” value is reported as “reduce V. cholerae toxin levels in a dose dependent manner”. Besides, in experiment [4], the “Quenching of DPPH absorbance” value came out at 10%. Moreover, the “Biofilm volume, crystal violet (CV) assay” value in experiment [5] (0-200 μM, 24 hr) is “increased biofilm volume”. In addition, in experiment [5] (900 nM CAI-1 and 100 μM), the “Biofilm of V. cholerae MM920 with CAI-1” value was “re-formation of a dense and uniform biofilm layer”. Also, the “Biofilm matrix of V. cholerae VC1 WT” value in experiment [5] (100 μM, 24 hours) was “significantly denser biofilm”. Further, the “Effect on QS in A. tumefaciens” value in experiment [6] is reported as “inhibits QS”.

Take `CC(=O)OCCc1ccc(O)cc1` [Tyrosol acetate]: in experiment [3], the “V. cholerae toxin levels” value is recorded as “inhibit; also recorded: reduction of toxin production by V. cholerae in a dose dependent manner”. Besides, in experiment [4], the “Quenching of DPPH absorbance” value is roughly 3%. Also, in experiment [5] (100 μM), the “V. cholerae biofilm production” value was “inhibit”.

Values taken from patent publication US20220160680A1, “MICROORGANISM MIXTURES, MOLECULES DERIVED THEREFROM, AND METHODS OF USE THEREOF” (B. G. Negev Technologies and Applications Ltd., at …, priority 2018, published 2022).
